Measured values as given in patent US9133157B2, “HIV protease inhibitors” (Merck Canada Inc., priority 2011, dated 2015).

Target: WT HIV-1 protease (Human immunodeficiency virus type 1 group M subtype B (isolate HXB2) (HIV-1), UniProt P04585)
Assay: Assay for inhibition of microbial expressed HIV protease (Procedure A, peptide substrate, HPLC fluorescence detection)
Assay type: biochemical
Settings: WT HIV-1 protease 10 pM, substrate 400 micromolar, pH 5.5, 30 min preincubation, 1 hour at 30° C.; read-out: Enzyme inhibition IC50
Outline: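 E. coli-expressed enzyme preincubated 30 min at room temperature with compound in 50 mM sodium acetate pH 5.5, 100 mM NaCl, 0.1% BSA. Reaction ran 1 h at 30° C with 400 micromolar Val-Ser-Gln-Asn-(betanaphthyl)Ala-Pro-Ile-Val substrate and 10 picomolar protease. After phosphoric acid quench, product was measured by C18 HPLC with fluorescence (ex 270/em 330 nm).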

Q: COC(=O)N[C@H](C(=O)N[C@H](c1ccc([C@@H](CO)N(CCC(C)(C)C)S(=O)(=O)c2ccc(N)c(Cl)c2)s1)C(F)(F)F)C(c1ccccc1)c1ccccc1 [Example 116, N-[(1S)-1-(5-{(1R)-1-[[(4-amino-3-chlorophenyl)sulfonyl](3,3-dimethylbutyl)amino]-2-hydroxyethyl}-2-thienyl)-2,2,2-trifluoroethyl]-Nα-(methoxycarbonyl)-β-phenyl-L-phenylalaninamide] was tested. Which IC50 did it give?
A: The IC50 was 3.54 nM.

Q: Which IC50 does the source give for COC(=O)N[C@H](C(=O)N[C@H](c1ccc([C@@H](CO)N(CCC(C)(C)C)S(=O)(=O)c2ccc(N)cc2Cl)s1)C(F)(F)F)C(c1ccccc1)c1ccccc1 [Example 117, N-[(1S)-1-(5-{(1R)-1-[[(4-amino-2-chlorophenyl)sulfonyl](3,3-dimethylbutyl)amino]-2-hydroxyethyl}-2-thienyl)-2,2,2-trifluoroethyl]-Nα-(methoxycarbonyl)-β-phenyl-L-phenylalaninamide] here?
A: The IC50 was 0.47 nM.

Q: COC(=O)N[C@H](C(=O)N[C@H](c1ccc([C@@H](CO)N(CCC(C)(C)C)S(=O)(=O)c2ccc3ncnn3c2)s1)C(F)(F)F)C(c1ccccc1)c1ccccc1 [Example 118, N-[(1S)-1-(5-{(1R)-1-[(3,3-dimethylbutyl)([1,2,4]triazolo[1,5-a]pyridin-6-ylsulfonyl)amino]-2-hydroxyethyl}thiophen-2-yl)-2,2,2-trifluoroethyl]-Nalpha-(methoxycarbonyl)-beta-phenyl-L-phenylalaninamide] was tested. Which IC50 did it give?
A: Its IC50 is 2.43 nM.

Q: With COC(=O)N[C@H](C(=O)N[C@H](c1ccc([C@@H](CO)N(CCC(C)(C)C)S(=O)(=O)c2cn3cc(Cl)nc3cn2)s1)C(F)(F)F)C(c1ccccc1)c1ccccc1 [Example 119, N-[(1S)-1-{5-[(1R)-1-{[(2-chloroimidazo[1,2-a]pyrazin-6-yl)sulfonyl](3,3-dimethylbutyl)amino}-2-hydroxyethyl]thiophen-2-yl}-2,2,2-trifluoroethyl]-Nα-(methoxycarbonyl)-β-phenyl-L-phenylalaninamide] as the molecule, how does the IC50 read?
A: Its IC50 is 13.9 nM.

Q: COC(=O)N[C@H](C(=O)N[C@H](c1ccc([C@@H](CO)N(CCC(C)(C)C)S(=O)(=O)c2ccn3ncnc3c2)s1)C(F)(F)F)C(c1ccccc1)c1ccccc1 [Example 120, N-[(1S)-1-(5-{(1R)-1-[(3,3-dimethylbutyl)([1,2,4]triazolo[1,5-a]pyridin-7-ylsulfonyl)amino]-2-hydroxyethyl}thiophen-2-yl)-2,2,2-trifluoroethyl]-Nalpha-(methoxycarbonyl)-beta-phenyl-L-phenylalaninamide] was tested. Which IC50 did it give?
A: Its IC50 is 3 nM.

Q: How did the IC50 turn out when COC(=O)N[C@H](C(=O)N[C@H](c1ccc([C@@H](CO)N(CCC(C)(C)C)S(=O)(=O)c2cn3ccnc3cn2)s1)C(F)(F)F)C(c1ccccc1)c1ccccc1 [Example 122, N-[(1S)-1-(5-{(1R)-1-[(3,3-dimethylbutyl)(imidazo[1,2-a]pyrazin-6-ylsulfonyl)amino]-2-hydroxyethyl}thiophen-2-yl)-2,2,2-trifluoroethyl]-Nα-(methoxycarbonyl)-β-phenyl-L-phenylalaninamide] was run?
A: Its IC50 is 5.78 nM.

Q: COC(=O)N[C@H](C(=O)NCc1ccc([C@@H](CO)N(CC(C)C)S(=O)(=O)c2ccc3ncsc3c2)s1)C(c1ccccc1)c1ccccc1 [Example 123, N-[(5-{(1R)-1-[(1,3-benzothiazol-6-ylsulfonyl)(2-methylpropyl)amino]-2-hydroxyethyl}thiophen-2-yl)methyl]-Nα-(methoxycarbonyl).-β-phenyl-L-phenylalaninamide] was tested. Which IC50 did it give?
A: The IC50 was 6.3 nM.

Q: For CC(C)CN(C(CO)c1ccc(CNC(=O)C(NC(=O)c2ccccc2)C(c2ccccc2)c2ccncc2F)s1)S(=O)(=O)c1ccc2ncsc2c1 (stereo not drawn) [Example 124, N-[1-[[5-[1-(1,3-benzothiazol-6-ylsulfonyl(isobutyl)amino)-2-hydroxy-ethyl]-2-thienyl]methylcarbamoyl]-2-(3-fluoro-4-pyridyl)-2-phenyl-ethyl]benzamide], which IC50 is on record?
A: The IC50 was 568 nM.

Q: CC(C)CN(C(CO)c1ccc(CNC(=O)C(NC(=O)c2ccccc2)C(c2ccccc2)c2ccnc3ccccc23)s1)S(=O)(=O)c1ccc2ncsc2c1 (stereo not drawn) [Example 125, N-[1-[[5-[1-(1,3-benzothiazol-6-ylsulfonyl(isobutyl)amino)-2-hydroxy-ethyl]-2-thienyl]methylcarbamoyl]-2-phenyl-2-(4-quinolyl)ethyl]benzamide] was tested. Which IC50 did it give?
A: Its IC50 is 409 nM.

Q: With CC(C)CN(C(CO)c1ccc(CNC(=O)C(NC(=O)c2ccccc2)C(c2ccccc2)c2c[nH]c3ncccc23)s1)S(=O)(=O)c1ccc2ncsc2c1 (stereo not drawn) [Example 126, N-[1[[5-[1-(1,3-benzothiazol-6-ylsulfonyl(isobutyl)amino)-2-hydroxy-ethyl]-2-thienyl]methylcarbamoyl]-2-phenyl-2-(1H-pyrrolo[2,3-b]pyridin-3-yl)ethyl]benzamide] as the molecule, how does the IC50 read?
A: Its IC50 is 4 nM.

Q: How did the IC50 turn out when CC(C)CN(C(CO)c1ccc(CNC(=O)C(NC(=O)c2ccccc2)C(c2ccccc2)c2cn(C)c3ccccc23)s1)S(=O)(=O)c1ccc2ncsc2c1 (stereo not drawn) [Example 127, N-[1-[[5-[1-(1,3-benzothiazol-6-ylsulfonyl(isobutyl)amino)-2-hydroxy-ethyl]-2-thienyl]methylcarbamoyl]-2-(1-methylindol-3-yl)-2-phenyl-ethyl]benzamide] was run?
A: The IC50 was 8 nM.

Q: For CC(C)CN(C(CO)c1ccc(CNC(=O)C(NC(=O)c2ccccc2)C(c2ccccc2)c2ccccc2)s1)S(=O)(=O)c1ccc2ncsc2c1 (stereo not drawn) [Example 128, N-[1-benzhydryl-2-[[5-[1-(1,3-benzothiazol-6-ylsulfonyl(isobutyl)amino)-2-hydroxy-ethyl]-2-thienyl]methylamino]-2-oxo-ethyl]benzamide], which IC50 is on record?
A: The IC50 was 53 nM.

Q: With CC(C)CN(C(CO)c1ccc(CNC(=O)C(NC(=O)c2ccccc2)C(c2ccccc2)c2cccc3ccncc23)s1)S(=O)(=O)c1ccc2ncsc2c1 (stereo not drawn) [Example 129, N-[1-[[5-[1-(1,3-benzothiazol-6-ylsulfonyl(isobutyl)amino)-2-hydroxy-ethyl]-2-thienyl]methylcarbamoyl]-2-(8-isoquinolyl)-2-phenyl-ethyl]benzamide] as the molecule, how does the IC50 read?
A: The IC50 was 7 nM.

Q: Which IC50 does the source give for CC(C)CN(C(CO)c1ccc(CNC(=O)C(NC(=O)c2ccccc2)C(c2ccccc2)c2c[nH]nc2-c2ccccc2)s1)S(=O)(=O)c1ccc2ncsc2c1 (stereo not drawn) [Example 130, N-[1-[[5-[1-(1,3-benzothiazol-6-ylsulfonyl(isobutyl)amino)-2-hydroxy-ethyl]-2-thienyl]methylcarbamoyl]-2-phenyl-2-(3-phenyl-1H-pyrazol-4-yl)ethyl]benzamide] here?
A: Its IC50 is 952 nM.

Q: How did the IC50 turn out when CC(C)CN(C(CO)c1ccc(CNC(=O)C(NC(=O)c2ccccc2)C(c2ccccc2)c2cn[nH]c2)s1)S(=O)(=O)c1ccc2ncsc2c1 (stereo not drawn) [Example 131, N-[1-[[5-[1-(1,3-benzothiazol-6-ylsulfonyl(isobutyl)amino)-2-hydroxy-ethyl]-2-thienyl]methylcarbamoyl]-2-phenyl-2-(1H-pyrazol-4-yl)ethyl]benzamide] was run?
A: Its IC50 is 79 nM.

Q: Which IC50 does the source give for CC(C)CN(C(CO)c1ccc(CNC(=O)C(NC(=O)c2ccccc2)C(c2ccccc2)c2cnc[nH]2)s1)S(=O)(=O)c1ccc2ncsc2c1 (stereo not drawn) [Example 132, N-[1-[[5-[1-(1,3-benzothiazol-6-ylsulfonyl(isobutyl)amino)-2-hydroxy-ethyl]-2-thienyl]methylcarbamoyl]-2-(1H-imidazol-5-yl)-2-phenyl-ethyl]benzamide] here?
A: The IC50 was 216 nM.

Q: Which IC50 does the source give for CC(C)CN(C(CO)c1ccc(CNC(=O)C(NC(=O)c2ccccc2)C(c2ccccc2)c2cccc3ncccc23)s1)S(=O)(=O)c1ccc2ncsc2c1 (stereo not drawn) [Example 133, N-[1-[[5-[1-(1,3-benzothiazol-6-ylsulfonyl(isobutyl)amino)-2-hydroxy-ethyl]-2-thienyl]methylcarbamoyl]-2-phenyl-2-(5-quinolyl)ethyl]benzamide] here?
A: The IC50 was 4.76 nM.

Q: With “N-{(1S)-1-[5-((1R)-1-{(3,3-dimethylbutyl)[4-(1-methyl-1H-pyrazol-4-ylphenylsulfonyl]amino}-2-hydroxyethyl)-2-thienyl]-2,2,2-trifluoroethyl}-Nα-(methoxycarbonyl)-β-phenyl-L-phenylalaninamide [Example 115]” as the molecule, how does the IC50 read?
A: Its IC50 is 20.9 nM.
